As usually defined, the ED50 is the dose that gives a 50% effect, or the effect in half of the subjects. Lower therefore signals greater potency.

Molecules are shown by their SMILES.

The values below come from patent publication US5792777A, “Biphenyl quinuclidines” (Zeneca Limited, priority 1991, dated 1998).

For experiment [1], the target named is T1, Squalene Synthetase (Rattus norvegicus, UniProt Q02769).
T1 construct: from tissue; host or cells: rat liver microsomes
T1 sequence (Q02769 1-416): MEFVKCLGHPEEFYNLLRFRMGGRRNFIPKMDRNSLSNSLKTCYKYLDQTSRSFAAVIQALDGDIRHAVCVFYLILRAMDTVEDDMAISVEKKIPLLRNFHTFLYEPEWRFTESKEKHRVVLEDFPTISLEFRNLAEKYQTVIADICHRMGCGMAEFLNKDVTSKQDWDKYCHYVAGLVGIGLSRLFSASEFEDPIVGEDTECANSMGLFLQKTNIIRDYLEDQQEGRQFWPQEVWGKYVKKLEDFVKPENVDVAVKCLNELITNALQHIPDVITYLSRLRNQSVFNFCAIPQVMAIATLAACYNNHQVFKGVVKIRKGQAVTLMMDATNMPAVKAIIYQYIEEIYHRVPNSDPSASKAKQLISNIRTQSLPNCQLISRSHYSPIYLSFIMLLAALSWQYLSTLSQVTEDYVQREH
As to the kind of experiment: Inhibition of Squalene Synthetase (formation of squalene from tritiated farnesyl pyrophosphate, rat liver microsomal protein). It is filed as biochemical. Particulars: 20 μM 1-[3H]-farnesyl pyrophosphate, 15 minutes, 37° C., read-out: IC50 (concentration which results in a 50% inhibition of squalene production). The method, then: (a) Inhibition of Squalene Synthetase
In this test, the ability of a compound to prevent the formation of squalene from a radioactive substrate (tritiated farnesyl pyrophosphate) is assessed.
The test compound is incubated at a concentration of 25 micromolar in 200 μl of a buffered solution containing potassium phosphate (50 mM), MgCl2 (4.95 mM), KF (9.9 mM), NADPH (0.9 mM) and rat liver microsomal protein (20 μg). Rat liver microsomes are prepared by the method described in published European Patent Application No. 324,421 and stored in liquid nitrogen prior to assay. Assay vials are kept at 37° C. throughout the incubation.
The reaction is started with the addition of the substrate (1-[^3 H]-farnesyl pyrophosphate), final concentration 20 μM, and stopped after 15 minutes reaction time with the addition of 50 μl of 4% KOH. The reaction products are separated from unreacted substrate after application to a C-18 octadecyl 1ccBond column (Analytichem Int product No. 617101). An aqueous fraction is eluted with 250 μl of 0.1M KOH. Squalene is then eluted with 1.0 ml 10% ethylacetate in hexane and radioactivity determined. The difference in radioactivity in the presence and absence of the test compound is used to determine the level of inhibition. […] The IC50 can then be determined from a plot of percentage inhibition against concentration of test compound.

The subject of experiment [2] is de novo hepatic cholesterol synthesis. In words: Acute Rat Cholesterol Synthesis Assay (de novo hepatic cholesterol synthesis from exogenously administered 14C-acetate). It is filed as in vivo. Particulars: female rats, oral gavage, ip or iv (route not specified), 14C-acetate ip after 1 hour, blood sample a further hour later. As to the method:
(b) Acute Rat Cholesterol Synthesis Assay
This is an acute in vivo test in the rat to measure de novo hepatic cholesterol synthesis from exogenously administered ^14 C-acetate.
Female rats (35-55 g) are housed in reverse lighting conditions (red light from 0200h-1400h) for a period of about 2 weeks prior to test. Animals are allowed free access to chow and drinking water throughout this period. At test, animals should weigh 125-150 g.
Test compounds may be administered by oral gavage, dissolved or suspended in 0.5% polysorbate, or by ip or iv dosing. Control animals receive vehicle alone. After 1 hour the rats are injected ip with 25 μCi [2-^14 C]-acetate (NEN DUPONT. specific activity, 45-60 mCi/mmol NEC-085H, or AMERSHAM specific activity, 50-60 mCi/mmol CFA 14) in a volume of 0.25 ml saline (100 μCi/ml). After a further hour, rats are terminally anaesthetised with halothane and a blood sample obtained from the abdominal vena cava.
1 ml of plasma is lyophilised and then saponified in 2 ml ethanolic KOH (1 part 33% KOH, 9 parts ethanol) at 75° C. for 2 hours. After addition of an equal quantity of water, non-saponifiable lipids are extracted with two 5 ml volumes of hexane. The hexane extracts are evaporated to dryness and the residues dissolved in ethanol to determine cholesterol specific radioactivity. ED50 values can be determined in the standard way.

`OC1(c2cccc(-c3ccccc3)c2)CN2CCC1CC2` (centres unmarked) [Example 3, 3-(biphenyl-3-yl)-3-hydroxyquinuclidine]: the IC50 in experiment [1] came out at 600 nM.

In experiment [2], `OC1(c2ccc(-c3ccc(F)cc3)cc2)CN2CCC1CC2` (centres unmarked) [Example 6, 3-[4'-fluorobiphenyl-4-yl]-3-hydroxyquinuclidine] displayed an ED50 of 8 mg/kg.
